Measured values from the NIST ThermoML archive (doi:10.1016/j.jct.2019.02.025).
Numbers after ± are expanded uncertainties.

What was measured:
[1] = refractive index (Na D-line) (dimensionless); details: 101.33 kPa, Liquid, Standard Abbe refractometry
[2] = for mass density / kinematic viscosity: 101.33 kPa, Liquid; for mass density: Vibrating tube method; for surface tension liquid-gas / kinematic viscosity: Surface laser light scattering (SLLS)

CCCCCCCCCC(=O)OCC [ethyl decanoate]
Details | kinematic viscosity [m2/s] | mass density [kg/m3] | refractive index | surface tension liquid-gas [mN/m]
[1], 278.15 K | – | – | 1.43213 ± 0.00052 | –
[1], 283.15 K | – | – | 1.43 ± 0.00052 | –
[1], 288.15 K | – | – | 1.42789 ± 0.00052 | –
[1], 293.15 K | – | – | 1.42577 ± 0.00052 | –
[1], 298.15 K | – | – | 1.42366 ± 0.00052 | –
[1], 303.15 K | – | – | 1.42155 ± 0.00052 | –
[1], 308.15 K | – | – | 1.41944 ± 0.00052 | –
[1], 313.15 K | – | – | 1.41729 ± 0.00052 | –
[1], 318.15 K | – | – | 1.41512 ± 0.00052 | –
[1], 323.15 K | – | – | 1.41297 ± 0.00052 | –
[1], 328.15 K | – | – | 1.41084 ± 0.00052 | –
[1], 333.15 K | – | – | 1.40873 ± 0.00052 | –
[1], 338.15 K | – | – | 1.40661 ± 0.00052 | –
[1], 343.15 K | – | – | 1.40451 ± 0.00052 | –
[1], 348.15 K | – | – | 1.40241 ± 0.00052 | –
[1], 353.15 K | – | – | 1.40034 ± 0.00052 | –
[1], 358.15 K | – | – | 1.39826 ± 0.00052 | –
[2], 293.15 K | – | 864.08 ± 1.7 | – | –
[2], 298.13 K | 2.2e-06 ± 8.7e-08 | – | – | 23.87 ± 0.3
[2], 303.15 K | – | 855.82 ± 1.7 | – | –
[2], 313.15 K | – | 847.62 ± 1.7 | – | –
[2], 323.11 K | 1.59e-06 ± 6.1e-08 | – | – | 22.57 ± 0.35
[2], 323.15 K | – | 839.41 ± 1.7 | – | –
[2], 333.15 K | – | 830.71 ± 1.7 | – | –
[2], 343.15 K | – | 822.79 ± 1.6 | – | –
[2], 348.1 K | 1.22e-06 ± 4.6e-08 | – | – | 21.38 ± 0.27
[2], 353.15 K | – | 814.9 ± 1.6 | – | –
[2], 363.15 K | – | 806.72 ± 1.6 | – | –
[2], 373.15 K | – | 798.5 ± 1.6 | – | –
[2], 373.17 K | 9.55e-07 ± 3.8e-08 | – | – | 19.81 ± 0.3
[2], 383.15 K | – | 790.26 ± 1.6 | – | –
[2], 393.15 K | – | 781.97 ± 1.6 | – | –
[2], 398.16 K | 7.48e-07 ± 2.5e-08 | – | – | 18.26 ± 0.19
[2], 403.15 K | – | 773.63 ± 1.6 | – | –
[2], 413.15 K | – | 765.29 ± 1.5 | – | –
[2], 423.12 K | 6.18e-07 ± 2.6e-08 | – | – | 16.8 ± 0.3
[2], 423.15 K | – | 756.81 ± 1.5 | – | –
[2], 433.15 K | – | 748.26 ± 1.5 | – | –
[2], 443.15 K | – | 739.7 ± 1.5 | – | –
[2], 448.1 K | 4.92e-07 ± 1.9e-08 | – | – | 14.86 ± 0.35
[2], 453.15 K | – | 731.01 ± 1.5 | – | –

CCCCCCCCCCCC [dodecane]
[2]
Details | kinematic viscosity [m2/s] | mass density [kg/m3] | surface tension liquid-gas [mN/m]
293.15 K | – | 748.81 ± 1.5 | –
298.16 K | 1.76e-06 ± 7.1e-08 | – | 23.37 ± 0.73
303.15 K | – | 741.42 ± 1.5 | –
313.15 K | – | 734.08 ± 1.5 | –
323.15 K | – | 726.74 ± 1.5 | –
323.23 K | 1.25e-06 ± 4.8e-08 | – | 21.9 ± 0.17
333.15 K | – | 719.38 ± 1.5 | –
343.15 K | – | 711.32 ± 1.4 | –
348.21 K | 9.24e-07 ± 3e-08 | – | 20.09 ± 0.21
353.15 K | – | 704.62 ± 1.4 | –
363.15 K | – | 697.21 ± 1.4 | –
373.15 K | – | 689.75 ± 1.4 | –
373.29 K | 7.24e-07 ± 3.2e-08 | – | 18.02 ± 0.22
383.15 K | – | 682.25 ± 1.4 | –
393.15 K | – | 674.68 ± 1.4 | –
398.25 K | 5.87e-07 ± 2.2e-08 | – | 16.1 ± 0.16
403.15 K | – | 667.04 ± 1.4 | –
413.15 K | – | 659.32 ± 1.3 | –
423.15 K | – | 651.53 ± 1.3 | –
423.26 K | 4.89e-07 ± 1.9e-08 | – | 14.25 ± 0.11
433.15 K | – | 643.6 ± 1.3 | –
443.15 K | – | 635.55 ± 1.3 | –
448.27 K | 4.16e-07 ± 1.8e-08 | – | 12.32 ± 0.09
453.15 K | – | 627.38 ± 1.3 | –
463.15 K | – | 619.09 ± 1.3 | –
473.15 K | – | 610.6 ± 1.2 | –
